Laboratory results taken from US11896704B2, “Compounds useful for the treatment and/or care of the skin, hair, nails and/or mucous membranes” (LUBRIZOL ADVANCED MATERIALS, INC., priority 2017, dated 2024).

How the values were obtained:
[1] = system: PER2 (period circadian clock 2); assay: PER genes expression in young and old HEKa, real time PCR: PER2; format: cell-based, Human; details: 0.5 mg/ml
Procedure: In Vitro Study of PER Genes Expression in Young and Old Human Epidermal Keratinocytes (HEKa) Using Real Time PCR Arrays. Human Epidermal Keratinocytes, (HEKa) cells (Life Technologies) from donor one and donor two are seeded at 3.0×10^5 cells/well in 12-well plates and incubated in culture medium, Keratinocyte growth medium supplemented with Mix C39016-CaCl2 solution (Promocell). For synchronization, cells were subjected to two alternative cycles of 12 hours each at 37° C. in 5% CO2 humidified air (day mode) and 33° C. in 5% CO2 humidified air (night mode). 12 hours after starting synchronization, cells are incubated with the synthetic peptide […] (PEP-1, H-[SEQ ID. NO. 2]-NH2) at 0.5 mg/ml in culture medium. Cells treated with medium alone are used as basal condition. At the end of synchronization, cell lysates are collected at 7:30 hour (early morning point). […] After RNA elution, quantification and analysis of purity of RNA samples are performed with a nanodrop (Thermo). […] SYBR Green binds to double-stranded DNA molecules and emits fluorescence which is quantified, and the fluorescence intensity is proportional to the amount of the product in the PCR reaction. […] Fold change relative to the expression of the sample genes and reference genes is calculated using normalized expression (ΔΔ(Ct)) method using CFX Manager SoftwareTM (BioRad).

[2] = system: Phenion Full-Thickness Skin models; assay: Lipidomics profile (UHPLC-MS) in synchronized human full-thickness skin models; format: cell-based; details: 0.5 mg/ml, 48 hours of treatment, 7:30 h, one assay
Excerpt: Analysis of Lipidomics Profile in Synchronized Human Full-Thickness Skin Models. Lipidomic profile from human skin models can be assessed by measuring using an ultrahigh performance liquid chromatography-mass spectrometry (UHPLC-MS). The main objective of this experiment is to evaluate the lipidomic profile of synchronized human skin models after the treatment with the peptide […] (PEP-1, H-[SEQ ID. NO. 2]-NH2) in order to determine ceramide skin content and the PC-DHA/PC ratio. After arrival, the Phenion® Full-Thickness Skin models ([…]) are placed in Petri dishes (5 skin models per condition) according to the supplier's instructions in ALI medium ([…]). After 72 hours incubation at 37° C., 5% CO2, a synchronization protocol is initialized. For this purpose, skin models are subjected to two alternative cycles of 12 hours each at 37° C. in 5% CO2 humidified air (day mode) and 33° C. in 5% CO2 humidified air (night mode). Skin models are treated with the peptide […] (PEP-1, H-[SEQ ID. NO. 2]-NH2) at 0.5 mg/ml both in the above surface (50 μl of treatment) of the models and within the Petri-dish containing medium. Skin models treated with medium are used as a basal control condition. This treatment is […] hours in the same conditions. […] These values are calculated for one assay. […] These values are calculated for one assay.

Substance: H-Phe-Trp-Met-Lys-Arg-Lys-Arg-Val-Pro-NH2 (H-FWMKRKRVP-NH2) [PEP-1]
- Fold induction at 7:30 h respect to Basal condition (%) ([1]; PER2, HEKa from donor one): 172.0%
- Fold induction at 7:30 h respect to Basal condition (%) ([1]; PER2, HEKa from donor two): 292.0%
- Ceramides amount (%) ([2]; relative to basal condition 7:30 h): 147.6%
- Percentage PC-DHA/PC ratio (%) ([2]; relative to basal conditions 7:30 h): 120.2%
